PMC8433221 (Scientific Reports, 2021)

Molecular target: T1, PptAb-ACP complex (S2105A ACP) (Mycobacteroides abscessus, UniProt B1MD73)
T1 construct: gene MAB_3117c

For CCNC(=N)NC(=O)Nc1c(CC)cccc1CC [compound 1, 1-[(2,6-diethylphenyl)-3-N-ethylcarbamimodoyl]urea], the “X-ray crystallography, 2.5 Å, co-crystallisation” value was “complex formed between PptAb and its cognate ACP domain in the presence of CoA”.
